In publication PMC10160475, “Biological evaluation and in silico studies of novel compounds as potent TAAR1 agonists that could be used in schizophrenia treatment” (Frontiers in Pharmacology, 2023):

Columns and labels:
[1] = Liver microsomal stability, mouse
Method: (§1) Compounds were incubated with samples of liver microsomes from mice, rats, and humans and NADPH for 5, 10, 20, 30, or 60 min at 37°C. A cold acetonitrile solution containing tolbutamide was used to terminate the reaction. Testosterone and dextromethorphan were used as positive controls. LC-MS/MS was employed to determine the retention of compounds. The retention time, chromatogram acquisition, and chromatogram integration of compounds and positive control substances were analyzed using Analyst (AB Sciex, Framingham, MA, United States).

human 5-HT2A [2] = biological target: T1, human 5-HT2A (Homo sapiens, UniProt P28223); test: Calcium (FLIPR) assay, antagonist activity at human 5-HT2A; assay type: cell-based
T1 construct: expressed in transfected cells; host or cells: Flp-In-CHO cell line
T1 sequence (P28223 whole entry): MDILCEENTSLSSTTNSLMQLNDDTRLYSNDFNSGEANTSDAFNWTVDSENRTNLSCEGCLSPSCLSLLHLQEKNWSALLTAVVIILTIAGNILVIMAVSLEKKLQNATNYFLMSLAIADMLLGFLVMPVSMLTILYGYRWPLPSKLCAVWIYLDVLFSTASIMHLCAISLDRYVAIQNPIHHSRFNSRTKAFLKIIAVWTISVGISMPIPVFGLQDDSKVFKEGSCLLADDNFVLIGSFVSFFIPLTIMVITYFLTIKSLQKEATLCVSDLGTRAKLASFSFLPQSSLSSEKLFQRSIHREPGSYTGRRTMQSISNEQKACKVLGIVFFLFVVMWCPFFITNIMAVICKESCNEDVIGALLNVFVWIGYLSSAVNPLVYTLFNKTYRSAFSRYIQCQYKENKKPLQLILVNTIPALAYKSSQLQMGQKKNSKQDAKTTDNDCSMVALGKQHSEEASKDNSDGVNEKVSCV
Method: (§2) With regard to 5-HT2A, the agonistic or inhibitory activity of 5-HT2A of compounds was determined using the Flp-In™-CHO cell line expressing human 5-HT2A. Cells were cultured with Ham’s F-12K (Kaighn’s) medium supplemented with 10% FBS, penicillin (100 U/ml), streptomycin (100 μg/ml), and hygromycin B (600 μg/ml) at 37°C in an atmosphere of 95% air and 5% CO2. Cells were stimulated with different concentrations of compounds for 2 h at 37°C after seeding in 384-well microplates. For the determination of agonistic activity, serotonin was used as the MAX control. In the determination of inhibitory activity, ketanserin was used as the MAX control.

human TAAR1 = biological target: T2, human TAAR1 (Homo sapiens, UniProt Q96RJ0); test: cAMP assay, functional agonist activity at human TAAR1; assay type: cell-based
T2 construct: expressed in transfected cells; host or cells: cAMP Hunter CHO-K1 AGTRL1 Gi cells
T2 sequence (Q96RJ0 1-339): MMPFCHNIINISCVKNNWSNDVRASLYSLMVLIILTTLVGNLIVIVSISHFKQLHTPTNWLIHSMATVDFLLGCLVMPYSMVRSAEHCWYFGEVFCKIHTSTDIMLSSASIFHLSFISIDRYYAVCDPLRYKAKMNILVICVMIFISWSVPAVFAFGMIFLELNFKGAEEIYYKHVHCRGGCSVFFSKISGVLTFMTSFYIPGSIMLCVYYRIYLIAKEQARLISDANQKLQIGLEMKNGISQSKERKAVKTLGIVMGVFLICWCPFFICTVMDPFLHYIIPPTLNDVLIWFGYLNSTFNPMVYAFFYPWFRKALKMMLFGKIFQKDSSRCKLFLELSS
Method: Cells were seeded in a total volume of 20 µL into white-walled, 384-well microplates, followed by incubation at 37°C for the appropriate time before testing. Different concentrations of compounds were added to cells, and incubation was undertaken at 37°C for 10 min, with p-tyramine used as the MAX control. cAMP modulation was determined using the DiscoverX HitHunter cAMP XS + assay. Percentage activity was calculated using the following equation: Activity %=mean RLUtest sample – mean RLUvehicle control/mean RLUMAX control – mean RLUvehicle control×100%.

human 5-HT2A [3] = biological target: T1, human 5-HT2A; test: Calcium (FLIPR) assay, agonist activity at human 5-HT2A; assay type: cell-based
Method: as §2

[4] = Liver microsomal stability, human
Method: as §1

[5] = Permeability and transporter substrate evaluation in Caco-2 cells; assay type: in vitro ADME; conditions: human
Method: Cells were seeded into 96-well cell plates and cultured continuously for 24 days for subsequent experiments. Compounds were administered with or without verapamil (2 µM). […] The […] content in each sample was measured by liquid chromatography–tandem mass spectrometry (LC-MS/MS). The apparent permeability coefficient and the efflux ratio were calculated.

hERG = biological target: T3, hERG (Homo sapiens, UniProt Q12809); test: hERG assay (electrophysiological recording, CHO cells stably expressing hERG); assay type: cell-based; conditions: up to a maximum concentration of 30 μM
T3 construct: expressed in transfected cells; host or cells: CHO cells stably expressing hERG
T3 sequence (Q12809 whole entry): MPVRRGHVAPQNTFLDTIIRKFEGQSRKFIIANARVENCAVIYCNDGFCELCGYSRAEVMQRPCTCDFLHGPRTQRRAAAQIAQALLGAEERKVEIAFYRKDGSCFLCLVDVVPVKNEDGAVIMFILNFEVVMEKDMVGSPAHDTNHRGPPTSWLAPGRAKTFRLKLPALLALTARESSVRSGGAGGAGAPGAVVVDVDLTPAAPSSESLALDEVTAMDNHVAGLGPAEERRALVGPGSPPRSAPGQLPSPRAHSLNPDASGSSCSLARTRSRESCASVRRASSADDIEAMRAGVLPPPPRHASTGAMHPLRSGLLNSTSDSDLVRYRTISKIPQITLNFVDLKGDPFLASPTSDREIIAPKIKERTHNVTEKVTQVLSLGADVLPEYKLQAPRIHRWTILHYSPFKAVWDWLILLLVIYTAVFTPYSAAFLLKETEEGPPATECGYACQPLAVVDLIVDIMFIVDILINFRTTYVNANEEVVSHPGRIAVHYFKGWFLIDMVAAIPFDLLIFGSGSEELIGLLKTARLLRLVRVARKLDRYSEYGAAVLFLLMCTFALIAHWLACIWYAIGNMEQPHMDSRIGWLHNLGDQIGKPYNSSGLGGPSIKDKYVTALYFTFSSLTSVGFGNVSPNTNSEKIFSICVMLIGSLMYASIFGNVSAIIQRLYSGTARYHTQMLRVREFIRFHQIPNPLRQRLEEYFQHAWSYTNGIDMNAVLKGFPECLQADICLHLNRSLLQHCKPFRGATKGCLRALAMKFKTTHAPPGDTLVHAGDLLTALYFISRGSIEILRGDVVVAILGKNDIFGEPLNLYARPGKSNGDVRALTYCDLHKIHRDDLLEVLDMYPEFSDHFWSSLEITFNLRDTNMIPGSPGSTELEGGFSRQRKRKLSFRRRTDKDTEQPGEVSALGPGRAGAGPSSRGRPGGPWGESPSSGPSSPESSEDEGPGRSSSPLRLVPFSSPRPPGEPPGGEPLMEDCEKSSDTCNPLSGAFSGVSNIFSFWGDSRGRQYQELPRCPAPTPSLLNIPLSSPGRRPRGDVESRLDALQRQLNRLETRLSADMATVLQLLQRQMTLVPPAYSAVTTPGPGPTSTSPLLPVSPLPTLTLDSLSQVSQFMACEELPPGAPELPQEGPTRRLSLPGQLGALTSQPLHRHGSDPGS
Method: CHO cells stably expressing hERG cultured with DMEM/F12 supplemented with 10% FBS, penicillin (100 U/ml), and streptomycin (100 μg/ml) were cultured in cell culture dishes (diameter = 35 mm) in an incubator at 37°C in an atmosphere of 5% CO2. They were passaged at a ratio of 1:5 every 48 h. The medium comprised 90% F12, 10% FBS, G418 (100 μg/ml), and hygromycin B (100 μg/ml). On the day of the assay, the cell culture medium was aspirated and washed with an extracellular solution. Then, 0.25% Trypsin–EDTA solution was added, and digestion was allowed for 3–5 min at room temperature. Digestive juice was aspirated, and cells were transferred to the experimental dish for electrophysiological recording after resuspension with the extracellular solution for future use.

c1csc([C@@H]2CNCCO2)c1 [Compound 50B]
Remaining (T = 60 min) ([1]; Mouse liver microsomes, 60 min): 53.5%
CLint scaled ([1]; mouse, liver microsomes): 80.8 mL/min/kg
half-life ([1]; mouse, liver microsomes): 1.13 h
IC50 (human 5-HT2A [2]): > 100 µM
Emax (human 5-HT2A [2]; ketanserin as MAX control, up to 100 μM): 31.5%
EC50 (human TAAR1): 0.405 µM
Emax (human TAAR1; read-out: TAAR1 Agonist % Emax): 80.1%
EC50 (human 5-HT2A [3]): 61.2 µM
Emax (human 5-HT2A [3]; serotonin as MAX control, up to 100 μM, read-out: 5-HT2A agonism Emax): 54.9%
Remaining (T = 60 min) ([4]; Human liver microsomes, 60 min): 77.2%
CLint scaled ([4]; human, liver microsomes): 7.74 mL/min/kg
half-life ([4]; human, liver microsomes): 2.68 h
efflux ratio at 120 min ([5]; Caco-2): 0.781
Papp A→B at 120 min ([5]; Caco-2, 120 min incubation): 35.2 ×10⁻⁶ cm/s
Papp B→A at 120 min ([5]; Caco-2, 120 min incubation): 27.5 ×10⁻⁶ cm/s
hERG cardiotoxicity (hERG): not cardiotoxic
